Assay results reported in patent publication US9469650B2, “Melampomagnolide B derivatives” (BOARD OF TRUSTEES OF THE UNIVERSITY OF ARKANSAS, priority 2013, dated 2016).

What was measured:
[1] = tested on: ACHN; test: panel of 60 human tumor cell lines, growth inhibition (Renal Cancer)
[2] = tested on: CAKI-1
[3] = tested on: T-47D
[4] = tested on: CCRF-CEM; test: panel of 60 human tumor cell lines, growth inhibition (Leukemia)
[5] = tested on: OVCAR-8; test: panel of 60 human tumor cell lines, growth inhibition (Ovarian Cancer); conditions: OVCAR-8
[6] = tested on: UO-31; test: panel of 60 human tumor cell lines, growth inhibition (Renal Cancer); conditions: UO-31
[7] = tested on: 786-0; test: as above; conditions: 786-0
[8] = tested on: MCF7; test: panel of 60 human tumor cell lines, growth inhibition (Breast Cancer); conditions: MCF7
[9] = tested on: HCC-2998; test: panel of 60 human tumor cell lines, growth inhibition (Colon Cancer); conditions: HCC-2998
[10] = tested on: U251; test: panel of 60 human tumor cell lines, growth inhibition (CNS Cancer); conditions: U251
[11] = tested on: NCI-H460; test: panel of 60 human tumor cell lines, growth inhibition (Non-Small Cell Lung Cancer); conditions: NCI-H460
[12] = tested on: M14; test: panel of 60 human tumor cell lines, growth inhibition (Melanoma); conditions: M14

With C=C1C(=O)O[C@H]2[C@H]1CC/C(COC(=O)NCCN1CCCCC1)=C\CC[C@@]1(C)O[C@@H]21 [JVM 2-13] the GI50 [1] was 2.76 µM, the TGI [1] was 12.3 µM and the “Percent Growth” value ([1]; Log10 Concentration −4.0) was −80%. The “Percent Growth” value ([1]; Log10 Concentration −5.0) was 8%, the “Percent Growth” value ([1]; Log10 Concentration −6.0) was 83% and the “Percent Growth” value ([1]; Log10 Concentration −7.0) was 97%. The “Percent Growth” value ([1]; Log10 Concentration −8.0) was 94%, the CC50 [2] was 40.4 µM and the CC50 [3] was 62.4 µM. The GI50 [4] was 3.03 µM, the TGI [4] was 12.1 µM and the “Percent Growth” value ([4]; Log10 Concentration −4.0) was −41%. For the same compound, the “Percent Growth” value ([4]; Log10 Concentration −5.0) was 4%, the “Percent Growth” value ([4]; Log10 Concentration −6.0) was 93% and the “Percent Growth” value ([4]; Log10 Concentration −7.0) was 109%. The “Percent Growth” value ([4]; Log10 Concentration −8.0) was 104%, the GI50 [5] was 5.07 µM and the TGI [5] was 20 µM. For the same compound, the “Percent Growth” value ([5]; Log10 Concentration −4.0) was −75%, the “Percent Growth” value ([5]; Log10 Concentration −5.0) was 32% and the “Percent Growth” value ([5]; Log10 Concentration −6.0) was 93%. For the same compound, the “Percent Growth” value ([5]; Log10 Concentration −7.0) was 97%, the “Percent Growth” value ([5]; Log10 Concentration −8.0) was 100% and the GI50 [6] was 3.34 µM. For the same compound, the TGI [6] was 16.1 µM, the “Percent Growth” value ([6]; Log10 Concentration −4.0) was −81% and the “Percent Growth” value ([6]; Log10 Concentration −5.0) was 21%. The “Percent Growth” value ([6]; Log10 Concentration −6.0) was 82%, the “Percent Growth” value ([6]; Log10 Concentration −7.0) was 91% and the “Percent Growth” value ([6]; Log10 Concentration −8.0) was 91%. The GI50 [7] was 3.95 µM, the TGI [7] was 17.3 µM and the “Percent Growth” value ([7]; Log10 Concentration −4.0) was −74%. The “Percent Growth” value ([7]; Log10 Concentration −5.0) was 23%, the “Percent Growth” value ([7]; Log10 Concentration −6.0) was 90% and the “Percent Growth” value ([7]; Log10 Concentration −7.0) was 89%. The “Percent Growth” value ([7]; Log10 Concentration −8.0) was 86%, the GI50 [8] was 2.58 µM and the TGI [8] was 11.4 µM. The “Percent Growth” value ([8]; Log10 Concentration −4.0) was −64%, the “Percent Growth” value ([8]; Log10 Concentration −5.0) was 4% and the “Percent Growth” value ([8]; Log10 Concentration −6.0) was 82%. For the same compound, the “Percent Growth” value ([8]; Log10 Concentration −7.0) was 91%, the “Percent Growth” value ([8]; Log10 Concentration −8.0) was 87% and the GI50 [9] was 18.5 µM. The TGI [9] was 36 µM, the “Percent Growth” value ([9]; Log10 Concentration −4.0) was −77% and the “Percent Growth” value ([9]; Log10 Concentration −5.0) was 96%. The “Percent Growth” value ([9]; Log10 Concentration −6.0) was 104%, the “Percent Growth” value ([9]; Log10 Concentration −7.0) was 105% and the “Percent Growth” value ([9]; Log10 Concentration −8.0) was 99%. For the same compound, the GI50 [10] was 17.5 µM, the TGI [10] was 13.5 µM and the “Percent Growth” value ([10]; Log10 Concentration −4.0) was −84%. For the same compound, the “Percent Growth” value ([10]; Log10 Concentration −5.0) was 93%, the “Percent Growth” value ([10]; Log10 Concentration −6.0) was 94% and the “Percent Growth” value ([10]; Log10 Concentration −7.0) was 97%. For the same compound, the “Percent Growth” value ([10]; Log10 Concentration −8.0) was 98%, the TGI [11] was 36.5 µM and the “Percent Growth” value ([11]; Log10 Concentration −4.0) was −66%. The “Percent Growth” value ([11]; Log10 Concentration −5.0) was 85%, the “Percent Growth” value ([11]; Log10 Concentration −6.0) was 100% and the “Percent Growth” value ([11]; Log10 Concentration −7.0) was 100%. For the same compound, the “Percent Growth” value ([11]; Log10 Concentration −8.0) was 102% and the GI50 [12] was 6.78 µM.
